{"source": "patent US11911353B2", "about": "“Fatty acid synthase inhibitor and application thereof” (Jiangnan University, priority 2019, dated 2024)", "system": "prostate cancer cells PC-3", "test": "Growth cycle of PC-3 cells, PI staining flow cytometry (FIG. 3)", "assay_type": "cell-based", "details": "10 μM treatment group, 24 hours; control group 10.34%", "source_text": "[…]", "data": [{"smiles": "O=C(CCCC(=O)Nc1ccc(Br)cc1)N/N=C/c1cc(Br)ccc1O", "note": "[Compound I-1]", "values": [{"measurement": "proportion of PC3 cells in S phase", "value": 19.10, "unit": "%"}]}]}
